Data from patent US6693102B2, “Pyridine-substituted pyrazolopyridine derivatives” (Bayer Aktiengesellschaft, priority 2000, dated 2004).

Test system: rabbit aorta rings
Assay: Vasorelaxant action in vitro (phenylephrine-contracted rabbit aorta rings)
Details: Oryctolagus cuniculus, phenylephrine contraction, 37° C., 0.1% DMSO
Protocol: Rabbits are stunned by a blow to the neck and exsanguinated. The aorta is removed, freed from adherent tissue, divided into rings 1.5 mm wide and individually transferred under a pretension to 5 ml organ baths containing carbogen-aerated Krebs-Henseleit solution of the following composition (mM) at 37° C.: NaCl: 119; KCl: 4.8; CaCl2×2H2O: 1; MgSO4×7H2O; 1.4; KH2PO4: 1.2; NaHCO3:25; Glucose: 10. The contractile force is determined using Statham UC2 cells, amplified and digitalized by means of A/D converters (DAS-1802 HC, Keithley Instruments Munich), and recorded in parallel on linear recorders. To produce a contraction, phenylephrine is added to the bath cumulatively in increasing concentration. After several control cycles, the substance to be investigated is investigated in each further passage in increasing dose in each case and the height of the contraction is compared with the height of the contraction reached in the last previous passage. From this, the concentration is calculated which is necessary in order to reduce the height of the control value by 50% (IC50). The standard administration volume is 5 μl and the proportion of DMSO in the bath solution corresponds to 0.1%.

SMILES	IC50 [nM]
Nc1nc(-c2nn(Cc3ccccc3F)c3ncccc23)ncc1-c1ccncc1 [Example 1, 2-[1-[(2-Fluorophenyl)methyl]-1H-pyrazolo[3,4-b]pyridin-3-yl]-5-(4-pyridinyl)-4-pyrimidinamine]	660
Nc1nc(-c2nn(Cc3ccccc3F)c3ncccc23)nc(N)c1-c1ccncc1 [Example 4, 2-[1-(2-fluorobenzyl)-1H-pyrazolo[3,4-b]pyridine-3-yl]-5-(4-pyridinyl)-4,6-pyrimidine diamine]	1210
